Here are results for one molecule from ChEMBL document CHEMBL4017547, “Influences of Histidine-1 and Azaphenylalanine-4 on the Affinity, Anti-inflammatory, and Antiangiogenic Activities of Azapeptide Cluster of Differentiation 36 Receptor Modulators” (J Med Chem, 2017).

Data set [1] can be described thus: Pro-angiogenic activity in mouse sclera/choroid/retinal pigment epithelium complex assessed as increase in microvascular sprouting at 1 uM after 24 hrs by microscopic analysis. The class given is ADME.
The target in data set [2] is Platelet glycoprotein 4 (Mus musculus) (UniProt Q08857). Kind of data set: Modulation of CD36 in mouse […] cells assessed as inhibition of R-FSL1-induced NO over production at 1 uM preincubated for 1 hr followed by overnight R-FSL1 stimulation by DAN-fluorescence assay relative to control. It is filed as cell-based.
Data set [3] has as its target Platelet glycoprotein 4 (Rattus norvegicus) (UniProt Q07969). Kind of data set: Inhibition of photoactivatable [125I]-Tyr-Bpa-Ala-hexarelin binding to CD36 in Sprague-Dawley rat heart membranes after 60 mins by SDS-PAGE analysis relative to H-His-D-Trp-Ala-aza(3-hydroxy)Phe-D-Phe-Lys-NH2. It is filed as cell membranes. As to conditions: Membrane.
Data set [4] deals with Platelet glycoprotein 4 (Mus musculus) (UniProt Q08857). Kind of data set: Modulation of CD36 in mouse J774A.1 cells assessed as inhibition of R-FSL1-induced NO over production at 1 uM preincubated for 1 hr followed by overnight R-FSL1 stimulation by DAN-fluorescence assay relative to control. The class given is cell-based.
In data set [5] the target is Platelet glycoprotein 4 (Rattus norvegicus, UniProt Q07969). Kind of data set: Inhibition of photoactivatable [125I]-Tyr-Bpa-Ala-hexarelin binding to CD36 in Sprague-Dawley rat heart membranes after 60 mins by SDS-PAGE analysis. It is filed as cell membranes, Membrane.

pIC50: −log10 of the molar value. Activity calls are given as the source filed them. No cut-off for these calls is given here.

Sequence of Platelet glycoprotein 4 (Mus musculus) (Q08857 whole entry): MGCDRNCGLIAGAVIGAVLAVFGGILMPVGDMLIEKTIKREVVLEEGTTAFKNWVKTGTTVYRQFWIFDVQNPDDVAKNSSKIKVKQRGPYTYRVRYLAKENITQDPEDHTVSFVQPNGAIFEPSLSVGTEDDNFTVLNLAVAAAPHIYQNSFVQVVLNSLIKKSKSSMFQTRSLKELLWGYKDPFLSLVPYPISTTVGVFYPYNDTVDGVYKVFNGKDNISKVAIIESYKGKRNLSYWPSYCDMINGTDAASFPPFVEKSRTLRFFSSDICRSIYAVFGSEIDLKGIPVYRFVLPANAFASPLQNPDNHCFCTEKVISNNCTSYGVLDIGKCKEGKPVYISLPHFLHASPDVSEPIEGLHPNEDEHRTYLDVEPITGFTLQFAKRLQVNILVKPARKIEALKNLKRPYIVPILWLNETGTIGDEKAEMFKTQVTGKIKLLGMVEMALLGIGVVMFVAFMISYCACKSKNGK
Sequence of Platelet glycoprotein 4 (Rattus norvegicus) (Q07969 whole entry): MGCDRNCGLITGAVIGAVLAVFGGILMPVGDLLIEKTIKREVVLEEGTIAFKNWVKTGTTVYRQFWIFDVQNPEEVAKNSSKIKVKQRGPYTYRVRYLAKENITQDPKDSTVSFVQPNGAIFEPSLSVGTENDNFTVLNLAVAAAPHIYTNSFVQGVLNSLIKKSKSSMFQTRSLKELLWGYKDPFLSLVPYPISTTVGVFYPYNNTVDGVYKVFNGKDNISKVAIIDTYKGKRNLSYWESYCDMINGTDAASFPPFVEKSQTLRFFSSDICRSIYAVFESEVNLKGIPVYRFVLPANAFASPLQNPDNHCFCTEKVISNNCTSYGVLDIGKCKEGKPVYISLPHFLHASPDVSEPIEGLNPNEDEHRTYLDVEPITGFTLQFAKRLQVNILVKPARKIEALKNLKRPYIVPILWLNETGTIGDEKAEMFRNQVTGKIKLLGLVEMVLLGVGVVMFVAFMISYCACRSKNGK
Sequence of Platelet glycoprotein 4 (Q07969 whole entry): as above

Regarding `CCCOc1ccc(CN(NC(=O)[C@H](C)NC(=O)[C@@H](Cc2c[nH]c3ccccc23)NC(=O)[C@@H](N)Cc2cnc[nH]2)C(=O)N[C@H](Cc2ccccc2)C(=O)N[C@@H](CCCCN)C(N)=O)cc1`, the Activity result in data set [1] was “Toxic”. The inhibition entry in data set [2] and in data set [4] was “Active” each time. Also, the fold change (FC) in data set [3] is 17.1. The molecule also showed a pIC50 in data set [5] of 5.78.
